Key:
[1] = molecular target: Mitogen-activated protein kinase 14 (Homo sapiens, UniProt Q16539); assay: Inhibition of p38 alpha
[2] = molecular target: T1, Tyrosine-protein kinase ZAP-70 (Homo sapiens, UniProt P43403); assay: Inhibition of human ZAP70 (Leu325 to Ala619) expressed in Sf9 cells by coupled spectrophotometric enzyme assay; type: cell-based
T1 sequence (P43403 whole entry): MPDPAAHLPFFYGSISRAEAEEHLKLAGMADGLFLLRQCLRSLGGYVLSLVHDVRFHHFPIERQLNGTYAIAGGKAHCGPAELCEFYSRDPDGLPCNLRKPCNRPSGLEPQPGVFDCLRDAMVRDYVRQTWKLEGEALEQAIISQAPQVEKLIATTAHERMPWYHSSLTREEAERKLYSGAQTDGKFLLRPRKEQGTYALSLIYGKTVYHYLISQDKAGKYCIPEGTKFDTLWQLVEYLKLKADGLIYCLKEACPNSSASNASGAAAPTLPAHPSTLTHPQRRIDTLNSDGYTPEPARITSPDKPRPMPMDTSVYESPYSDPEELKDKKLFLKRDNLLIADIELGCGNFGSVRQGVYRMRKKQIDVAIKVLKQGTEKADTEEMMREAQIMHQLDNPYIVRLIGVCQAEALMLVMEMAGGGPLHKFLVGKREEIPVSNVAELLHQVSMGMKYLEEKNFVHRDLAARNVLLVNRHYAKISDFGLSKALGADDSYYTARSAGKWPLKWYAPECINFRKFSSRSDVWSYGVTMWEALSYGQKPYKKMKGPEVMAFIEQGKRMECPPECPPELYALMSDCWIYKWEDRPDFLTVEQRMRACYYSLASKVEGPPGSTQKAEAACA

[3] = molecular target: T2, Mitogen-activated protein kinase 8 (Homo sapiens, UniProt P45983); assay: Inhibition of JNK1
T2 sequence (P45983 whole entry): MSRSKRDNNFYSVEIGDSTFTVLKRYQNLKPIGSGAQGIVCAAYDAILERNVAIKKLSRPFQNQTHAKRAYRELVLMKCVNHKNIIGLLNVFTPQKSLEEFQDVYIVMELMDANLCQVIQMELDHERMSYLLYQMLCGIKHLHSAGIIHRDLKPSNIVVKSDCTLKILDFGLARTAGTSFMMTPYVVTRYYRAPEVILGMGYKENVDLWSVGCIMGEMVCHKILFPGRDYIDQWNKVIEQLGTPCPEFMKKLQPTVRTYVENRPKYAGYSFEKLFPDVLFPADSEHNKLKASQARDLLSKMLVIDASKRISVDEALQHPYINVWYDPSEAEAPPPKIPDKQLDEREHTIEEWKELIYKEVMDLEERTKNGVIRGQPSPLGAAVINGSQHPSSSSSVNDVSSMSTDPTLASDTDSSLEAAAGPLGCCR

[4] = molecular target: T3, Epidermal growth factor receptor (Homo sapiens, UniProt P00533); assay: Inhibition of EGFR
T3 sequence (P00533 whole entry): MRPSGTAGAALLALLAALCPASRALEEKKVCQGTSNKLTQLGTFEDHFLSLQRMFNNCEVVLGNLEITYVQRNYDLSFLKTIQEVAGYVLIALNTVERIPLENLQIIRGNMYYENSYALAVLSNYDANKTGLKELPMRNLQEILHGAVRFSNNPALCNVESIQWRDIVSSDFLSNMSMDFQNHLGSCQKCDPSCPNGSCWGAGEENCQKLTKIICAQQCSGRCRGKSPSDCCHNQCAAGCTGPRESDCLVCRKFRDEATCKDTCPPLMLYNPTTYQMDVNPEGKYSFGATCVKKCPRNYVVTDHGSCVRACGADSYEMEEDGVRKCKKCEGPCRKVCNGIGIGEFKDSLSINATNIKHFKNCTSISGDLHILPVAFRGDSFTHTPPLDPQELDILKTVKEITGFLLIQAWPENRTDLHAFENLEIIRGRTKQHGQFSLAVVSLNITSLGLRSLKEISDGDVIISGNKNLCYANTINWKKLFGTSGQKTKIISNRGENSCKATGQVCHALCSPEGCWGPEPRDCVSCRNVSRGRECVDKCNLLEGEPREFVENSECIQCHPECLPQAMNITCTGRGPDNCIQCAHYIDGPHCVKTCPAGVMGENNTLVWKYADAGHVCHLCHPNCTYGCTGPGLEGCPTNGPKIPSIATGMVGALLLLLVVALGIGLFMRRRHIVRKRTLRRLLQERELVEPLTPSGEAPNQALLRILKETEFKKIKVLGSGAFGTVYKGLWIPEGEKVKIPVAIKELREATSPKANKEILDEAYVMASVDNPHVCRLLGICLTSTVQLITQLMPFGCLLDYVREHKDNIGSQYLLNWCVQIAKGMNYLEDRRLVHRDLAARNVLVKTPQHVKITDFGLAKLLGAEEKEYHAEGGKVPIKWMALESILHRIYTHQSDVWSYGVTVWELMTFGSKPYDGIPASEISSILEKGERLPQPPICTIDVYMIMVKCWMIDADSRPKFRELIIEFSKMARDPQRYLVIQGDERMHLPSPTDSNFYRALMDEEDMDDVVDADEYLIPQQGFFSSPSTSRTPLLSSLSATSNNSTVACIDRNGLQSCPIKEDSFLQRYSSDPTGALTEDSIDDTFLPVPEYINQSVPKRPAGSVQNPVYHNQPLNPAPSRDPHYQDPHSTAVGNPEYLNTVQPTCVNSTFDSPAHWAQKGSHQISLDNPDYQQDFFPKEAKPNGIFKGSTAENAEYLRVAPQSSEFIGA

[5] = molecular target: Proto-oncogene tyrosine-protein kinase Src (Homo sapiens, UniProt P12931); assay: Inhibition of Src
Proto-oncogene tyrosine-protein kinase Src, sequence (P12931 2-536 limits assumed): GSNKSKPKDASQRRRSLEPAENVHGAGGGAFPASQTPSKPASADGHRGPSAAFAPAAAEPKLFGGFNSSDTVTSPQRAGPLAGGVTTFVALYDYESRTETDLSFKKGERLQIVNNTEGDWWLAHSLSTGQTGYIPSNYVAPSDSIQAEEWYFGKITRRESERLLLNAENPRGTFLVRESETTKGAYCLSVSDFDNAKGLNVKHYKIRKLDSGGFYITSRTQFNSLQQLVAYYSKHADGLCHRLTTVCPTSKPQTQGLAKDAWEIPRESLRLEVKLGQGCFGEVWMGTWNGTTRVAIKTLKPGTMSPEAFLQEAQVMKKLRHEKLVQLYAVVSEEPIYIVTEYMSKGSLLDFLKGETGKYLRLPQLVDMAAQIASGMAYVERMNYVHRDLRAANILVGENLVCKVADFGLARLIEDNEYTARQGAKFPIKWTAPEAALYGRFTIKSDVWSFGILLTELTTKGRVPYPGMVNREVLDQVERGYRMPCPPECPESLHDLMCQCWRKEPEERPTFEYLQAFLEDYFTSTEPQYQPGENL

[6] = molecular target: Tyrosine-protein kinase Lck (Homo sapiens, UniProt P06239); assay: Inhibition of Lck
Tyrosine-protein kinase Lck, sequence (P06239 whole entry): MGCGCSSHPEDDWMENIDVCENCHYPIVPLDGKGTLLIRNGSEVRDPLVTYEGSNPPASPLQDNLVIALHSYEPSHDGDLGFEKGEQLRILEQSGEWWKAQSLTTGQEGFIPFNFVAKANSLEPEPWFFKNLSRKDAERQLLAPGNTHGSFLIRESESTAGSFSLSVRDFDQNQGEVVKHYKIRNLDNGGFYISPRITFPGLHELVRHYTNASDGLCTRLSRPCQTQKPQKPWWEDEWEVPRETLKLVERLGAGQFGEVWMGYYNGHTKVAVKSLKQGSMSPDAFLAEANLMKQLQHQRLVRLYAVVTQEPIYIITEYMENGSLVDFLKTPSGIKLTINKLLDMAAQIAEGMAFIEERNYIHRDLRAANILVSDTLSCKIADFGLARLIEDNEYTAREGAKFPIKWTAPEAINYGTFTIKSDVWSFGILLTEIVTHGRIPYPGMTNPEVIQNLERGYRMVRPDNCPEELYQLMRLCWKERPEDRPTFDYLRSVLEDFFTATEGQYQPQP

[7] = molecular target: Mitogen-activated protein kinase 3 (Homo sapiens, UniProt P27361); assay: Inhibition of ERK1
Mitogen-activated protein kinase 3, sequence (P27361 whole entry): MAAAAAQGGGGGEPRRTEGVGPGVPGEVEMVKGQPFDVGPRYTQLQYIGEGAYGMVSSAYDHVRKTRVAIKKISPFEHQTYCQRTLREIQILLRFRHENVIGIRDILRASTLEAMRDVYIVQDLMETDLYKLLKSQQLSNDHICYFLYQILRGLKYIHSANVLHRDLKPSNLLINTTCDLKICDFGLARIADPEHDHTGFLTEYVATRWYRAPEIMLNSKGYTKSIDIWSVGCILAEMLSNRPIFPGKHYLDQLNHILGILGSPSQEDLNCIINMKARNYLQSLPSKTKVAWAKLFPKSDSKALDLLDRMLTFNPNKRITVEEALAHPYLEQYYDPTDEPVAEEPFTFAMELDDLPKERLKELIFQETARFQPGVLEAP

[8] = molecular target: Protein kinase C beta type (Homo sapiens, UniProt P05771); assay: Inhibition of PKC beta2
Protein kinase C beta type, sequence (P05771 whole entry): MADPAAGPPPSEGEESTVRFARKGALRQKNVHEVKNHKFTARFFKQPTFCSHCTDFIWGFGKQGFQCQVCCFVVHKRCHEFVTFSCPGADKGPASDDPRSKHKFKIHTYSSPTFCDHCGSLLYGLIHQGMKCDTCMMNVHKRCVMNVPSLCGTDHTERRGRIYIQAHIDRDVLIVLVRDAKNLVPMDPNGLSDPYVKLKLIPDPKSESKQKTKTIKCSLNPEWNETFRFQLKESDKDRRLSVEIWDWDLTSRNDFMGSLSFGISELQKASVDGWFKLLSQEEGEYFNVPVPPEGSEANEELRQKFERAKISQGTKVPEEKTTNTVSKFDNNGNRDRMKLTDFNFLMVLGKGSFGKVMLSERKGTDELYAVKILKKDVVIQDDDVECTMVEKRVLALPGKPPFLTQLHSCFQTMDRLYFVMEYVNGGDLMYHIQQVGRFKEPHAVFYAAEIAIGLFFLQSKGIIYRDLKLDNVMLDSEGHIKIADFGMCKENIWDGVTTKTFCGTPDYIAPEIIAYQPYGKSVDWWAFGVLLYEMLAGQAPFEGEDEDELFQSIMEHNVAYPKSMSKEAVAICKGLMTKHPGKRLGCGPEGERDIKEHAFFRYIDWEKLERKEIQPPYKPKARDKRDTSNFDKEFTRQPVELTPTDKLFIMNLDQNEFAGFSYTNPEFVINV

[9] = molecular target: Tyrosine-protein kinase SYK (Homo sapiens) (UniProt P43405); assay: Inhibition of Syk
[10] = molecular target: T2, Mitogen-activated protein kinase 8; assay: Inhibition of JNK1 at 10 uM
[11] = molecular target: T3, Epidermal growth factor receptor; assay: Inhibition of EGFR at 10 uM

Mitogen-activated protein kinase 14, sequence (Q16539 whole entry): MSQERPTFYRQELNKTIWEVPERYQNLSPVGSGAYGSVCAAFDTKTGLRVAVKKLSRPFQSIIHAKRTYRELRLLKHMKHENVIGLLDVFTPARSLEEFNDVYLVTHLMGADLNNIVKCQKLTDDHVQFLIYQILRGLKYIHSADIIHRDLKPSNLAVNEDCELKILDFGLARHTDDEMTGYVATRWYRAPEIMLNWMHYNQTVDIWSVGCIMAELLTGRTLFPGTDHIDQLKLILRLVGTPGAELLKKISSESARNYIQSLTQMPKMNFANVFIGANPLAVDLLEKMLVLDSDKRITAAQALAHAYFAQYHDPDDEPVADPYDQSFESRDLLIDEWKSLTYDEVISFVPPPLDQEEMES

| Structure (SMILES) | IC50 [1] [µM] | IC50 [2] [µM] | IC50 [3] [µM] | IC50 [4] [µM] | IC50 [5] [µM] | IC50 [6] [µM] | IC50 [7] [µM] | IC50 [8] [µM] | IC50 [9] [µM] | inhibition [10] [%] | inhibition [11] [%] |
| --- | --- | --- | --- | --- | --- | --- | --- | --- | --- | --- | --- |
| CCOC(=O)/C=C/c1ccc(CNc2nc(Nc3cc(OC)cc(OC)c3)c(C(N)=O)c3nccn23)cc1 | > 10 | 0.088 | > 10 | > 10 | > 10 | > 12.5 | > 10 | > 10 | – | – | – |
| CC(=O)N[C@@H](Cc1ccc(OP(=O)(O)O)cc1)C(=O)N[C@@H](CO)c1nc(Cc2ccc(C(F)(F)F)cc2)no1 | – | – | – | – | – | – | – | – | > 500 | – | – |
| COc1cc(Nc2nc(NCc3ccccc3)n3ccnc3c2C(N)=O)cc(OC)c1 | – | 0.4 | – | – | – | > 25 | – | – | – | – | – |
| COc1cc(Nc2nc(NCc3ccc(/C=C/C(=O)O)cc3)n3ccnc3c2C(N)=O)cc(OC)c1 | > 10 | 0.047 | – | – | > 10 | > 10 | > 10 | > 10 | – | 90 | 89 |

Source: ChEMBL document CHEMBL1139255, “Structure-activity relationship studies of 5-benzylaminoimidazo[1,2-c]pyrimidine-8-carboxamide derivatives as potent, highly selective ZAP-70 kinase inhibitors” (Bioorg Med Chem, 2009)
